Results taken from US11395847B2, “Acylated GLP-1/GLP-2 dual agonists” (Zealand Pharma A/S, priority 2016, dated 2022).
Where a SMILES comes first, the peptide text is derived from it.

Columns and labels:
human GLP-2 receptor = molecular target: T1, human GLP-2 receptor (Homo sapiens, UniProt O95838, D470N); assay: GLP-2 receptor potency assay (cAMP ALPHASCREEN, HEK293 cells stably expressing GLP-2 R); type: cell-based; conditions: cAMP response, HEK293 cells expressing human GLP-2 R; read-out: EC50 GLP-2
T1 construct: expressed in transfected cells
T1 sequence (O95838 1-553 D470N): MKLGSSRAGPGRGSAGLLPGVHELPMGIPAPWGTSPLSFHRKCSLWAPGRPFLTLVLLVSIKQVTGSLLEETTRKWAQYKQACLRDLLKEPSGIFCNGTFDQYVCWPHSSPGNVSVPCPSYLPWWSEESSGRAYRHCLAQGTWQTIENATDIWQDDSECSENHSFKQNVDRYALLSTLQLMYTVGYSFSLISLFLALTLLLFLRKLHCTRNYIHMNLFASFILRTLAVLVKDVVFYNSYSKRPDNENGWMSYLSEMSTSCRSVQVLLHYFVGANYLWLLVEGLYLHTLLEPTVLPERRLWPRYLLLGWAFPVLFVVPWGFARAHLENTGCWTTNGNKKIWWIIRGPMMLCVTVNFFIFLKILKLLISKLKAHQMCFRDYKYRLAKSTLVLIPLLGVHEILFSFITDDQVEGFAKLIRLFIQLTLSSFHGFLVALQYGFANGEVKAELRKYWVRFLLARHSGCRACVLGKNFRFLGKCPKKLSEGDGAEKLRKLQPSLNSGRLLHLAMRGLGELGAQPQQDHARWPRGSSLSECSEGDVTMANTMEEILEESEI
Procedure, shortened: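 HEK293 clones stably transfected with the human GLP-2 receptor, selected with G418, were used. Intracellular cAMP was quantified by AlphaScreen. Responses were normalised to positive and vehicle controls, and EC50 and maximal response were taken from concentration-response curves.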

human GLP-1 receptor = molecular target: T2, human GLP-1 receptor (Homo sapiens, UniProt P43220); assay: GLP-1 receptor potency assay (cAMP ALPHASCREEN, HEK293 cells stably expressing GLP-1 R); type: cell-based; conditions: cAMP response, HEK293 cells expressing human GLP-1 R
T2 construct: expressed in transfected cells
T2 sequence (P43220 24-463): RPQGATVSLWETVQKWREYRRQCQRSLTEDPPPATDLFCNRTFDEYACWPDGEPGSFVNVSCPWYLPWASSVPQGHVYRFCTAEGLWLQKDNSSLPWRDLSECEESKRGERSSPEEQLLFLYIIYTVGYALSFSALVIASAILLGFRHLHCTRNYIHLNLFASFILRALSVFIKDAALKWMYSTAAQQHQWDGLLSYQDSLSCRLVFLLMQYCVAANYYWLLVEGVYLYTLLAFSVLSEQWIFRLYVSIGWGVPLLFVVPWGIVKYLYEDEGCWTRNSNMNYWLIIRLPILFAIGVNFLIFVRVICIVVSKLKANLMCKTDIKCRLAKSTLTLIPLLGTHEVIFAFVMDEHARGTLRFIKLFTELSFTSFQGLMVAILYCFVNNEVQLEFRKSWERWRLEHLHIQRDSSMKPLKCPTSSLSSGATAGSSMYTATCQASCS
Procedure, shortened: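 Clonal HEK293 line stably transfected with human GLP-1R (G418-selected) was treated with test compounds and the cAMP response quantified by ALPHASCREEN. Signals were normalized to positive control and vehicle, with EC50 and maximal response taken from concentration-response curves.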

[1] = Chemical stability (RP-HPLC normalized purity after incubation at 40° C.); type: physicochemical; conditions: 14-day incubation, 0.2 mg/ml, normalized purity (area-%)
Procedure, shortened: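 Peptide at 0.2 mg/ml final in water adjusted to pH 6, 7, 7.5 or 9, incubated at 40° C for 14 days. Purity measured as main-peak area-% by C18 RP-HPLC (acetonitrile/TFA/water gradient, UV 220 nm) and normalized to T=0 set at 100 for each pH.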

CC[C@H](C)[C@H](NC(=O)[C@H](Cc1ccccc1)NC(=O)[C@H](CC(=O)O)NC(=O)[C@H](CCCNC(=N)N)NC(=O)[C@H](C)NC(=O)[C@H](C)NC(=O)[C@H](CCCCNC(=O)COCCOCCNC(=O)[C@H](CCCCN)NC(=O)[C@H](CCC(=O)O)NC(=O)[C@H](CCCCN)NC(=O)CC[C@H](NC(=O)CCCCCCCCCCCCCCCCCCC(=O)O)C(=O)O)NC(=O)[C@H](C)NC(=O)[C@H](CC(=O)O)NC(=O)[C@H](CC(C)C)NC(=O)[C@@H](NC(=O)[C@@H](NC(=O)[C@H](C)NC(=O)[C@H](CC(C)C)NC(=O)[C@H](CCC(=O)O)NC(=O)[C@H](CO)NC(=O)[C@@H](NC(=O)[C@H](Cc1ccccc1)NC(=O)[C@H](CO)NC(=O)CNC(=O)[C@H](CCC(=O)O)NC(=O)C(C)(C)NC(=O)[C@@H](N)Cc1c[nH]cn1)[C@@H](C)O)[C@@H](C)O)[C@@H](C)CC)C(=O)N[C@@H](C)C(=O)N[C@@H](Cc1c[nH]c2ccccc12)C(=O)N[C@@H](CC(C)C)C(=O)N[C@H](C(=O)N[C@@H](CCC(=O)O)C(=O)N[C@@H](Cc1c[nH]cn1)C(=O)N[C@@H](CCCCN)C(=O)N[C@H](C(=O)N[C@H](C(=O)N[C@@H](CC(=O)O)C(=O)O)[C@@H](C)O)[C@@H](C)CC)[C@@H](C)CC [Compound 62] (HELM PEPTIDE1{H.[Aib].E.G.S.F.T.S.E.L.A.T.I.L.D.A.K.A.A.R.D.F.I.A.W.L.I.E.H.K.I.T.D}|PEPTIDE2{[O=C(O)CCCCCCCCCCCCCCCCCCC(=O)[*:2]].[gGlu].K.E.K.[O=C(COCCOCCN[*:1])[*:2]]}$PEPTIDE1,PEPTIDE2,17:R3-6:R2$$$V2.0)
EC50 (human GLP-2 receptor): 0.15 nM | EC50 (human GLP-1 receptor): 0.27 nM

CC[C@H](C)[C@H](NC(=O)[C@H](Cc1ccccc1)NC(=O)[C@H](CC(=O)O)NC(=O)[C@H](CCCNC(=N)N)NC(=O)[C@H](C)NC(=O)[C@H](C)NC(=O)[C@H](CC(C)C)NC(=O)[C@H](CCCCNC(=O)CC[C@H](NC(=O)CCCCCCCCCCCCCCCCC(=O)O)C(=O)O)NC(=O)[C@H](CC(=O)O)NC(=O)[C@H](CC(C)C)NC(=O)[C@@H](NC(=O)[C@@H](NC(=O)[C@H](C)NC(=O)[C@H](CC(C)C)NC(=O)[C@H](CCC(=O)O)NC(=O)[C@H](CO)NC(=O)[C@H](CO)NC(=O)[C@H](Cc1ccccc1)NC(=O)[C@@H](NC(=O)CNC(=O)[C@H](CCC(=O)O)NC(=O)C(C)(C)NC(=O)[C@@H](N)Cc1c[nH]cn1)[C@@H](C)O)[C@@H](C)O)[C@@H](C)CC)C(=O)N[C@@H](C)C(=O)N[C@@H](Cc1c[nH]c2ccccc12)C(=O)N[C@@H](CC(C)C)C(=O)N[C@H](C(=O)N[C@@H](CCC(=O)O)C(=O)N[C@@H](Cc1c[nH]cn1)C(=O)N[C@@H](CCCCN)C(=O)N[C@H](C(=O)N[C@H](C(=O)N[C@@H](CC(=O)O)C(=O)O)[C@@H](C)O)[C@@H](C)CC)[C@@H](C)CC [Compound 10] (HELM PEPTIDE1{H.[Aib].E.G.T.F.S.S.E.L.A.T.I.L.D.K.L.A.A.R.D.F.I.A.W.L.I.E.H.K.I.T.D}|PEPTIDE2{[O=C(O)CCCCCCCCCCCCCCCCC(=O)[*:2]].[gGlu]}$PEPTIDE1,PEPTIDE2,16:R3-2:R2$$$V2.0)
EC50 (human GLP-2 receptor): 0.087 nM | EC50 (human GLP-1 receptor): 1.8 nM

CC[C@H](C)[C@H](NC(=O)[C@H](Cc1ccccc1)NC(=O)[C@H](CC(=O)O)NC(=O)[C@H](CCCNC(=N)N)NC(=O)[C@H](C)NC(=O)[C@H](C)NC(=O)[C@H](CCCCNC(=O)COCCOCCNC(=O)[C@H](CCCCN)NC(=O)[C@H](CCC(=O)O)NC(=O)[C@H](CCCCN)NC(=O)CC[C@H](NC(=O)CCCCCCCCCCCCCCCCCCC(=O)O)C(=O)O)NC(=O)CNC(=O)[C@H](CCC(=O)O)NC(=O)[C@H](CC(C)C)NC(=O)[C@@H](NC(=O)[C@@H](NC(=O)[C@H](C)NC(=O)[C@H](CC(C)C)NC(=O)[C@H](CCC(=O)O)NC(=O)[C@H](CO)NC(=O)[C@@H](NC(=O)[C@H](Cc1ccccc1)NC(=O)[C@H](CO)NC(=O)CNC(=O)[C@H](CCC(=O)O)NC(=O)C(C)(C)NC(=O)[C@@H](N)Cc1c[nH]cn1)[C@@H](C)O)[C@@H](C)O)[C@@H](C)CC)C(=O)N[C@@H](C)C(=O)N[C@@H](Cc1c[nH]c2ccccc12)C(=O)N[C@@H](CC(C)C)C(=O)N[C@H](C(=O)N[C@@H](CCC(=O)O)C(=O)N[C@@H](Cc1c[nH]cn1)C(=O)N[C@@H](CCCCN)C(=O)N[C@H](C(=O)N[C@H](C(=O)N[C@@H](CC(=O)O)C(=O)O)[C@@H](C)O)[C@@H](C)CC)[C@@H](C)CC [Compound 61] (HELM PEPTIDE1{H.[Aib].E.G.S.F.T.S.E.L.A.T.I.L.E.G.K.A.A.R.D.F.I.A.W.L.I.E.H.K.I.T.D}|PEPTIDE2{[O=C(O)CCCCCCCCCCCCCCCCCCC(=O)[*:2]].[gGlu].K.E.K.[O=C(COCCOCCN[*:1])[*:2]]}$PEPTIDE1,PEPTIDE2,17:R3-6:R2$$$V2.0)
EC50 (human GLP-2 receptor): 0.2 nM | EC50 (human GLP-1 receptor): 0.13 nM

CC[C@H](C)[C@H](NC(=O)[C@H](Cc1ccccc1)NC(=O)[C@H](CC(=O)O)NC(=O)[C@H](CCCCNC(=O)COCCOCCNC(=O)[C@H](CCCCN)NC(=O)[C@H](CCC(=O)O)NC(=O)[C@H](CCCCN)NC(=O)CC[C@H](NC(=O)CCCCCCCCCCCCCCCCCCC(=O)O)C(=O)O)NC(=O)[C@H](C)NC(=O)[C@H](C)NC(=O)[C@H](CCC(N)=O)NC(=O)[C@H](CCC(=O)O)NC(=O)[C@H](CC(=O)O)NC(=O)[C@H](CC(C)C)NC(=O)[C@@H](NC(=O)[C@@H](NC(=O)[C@H](C)NC(=O)[C@H](CC(C)C)NC(=O)[C@H](CCC(=O)O)NC(=O)[C@H](CO)NC(=O)[C@@H](NC(=O)[C@H](Cc1ccccc1)NC(=O)[C@@H](NC(=O)CNC(=O)[C@H](CCC(=O)O)NC(=O)C(C)(C)NC(=O)[C@@H](N)Cc1c[nH]cn1)[C@@H](C)O)[C@@H](C)O)[C@@H](C)O)[C@@H](C)CC)C(=O)N[C@@H](C)C(=O)N[C@@H](Cc1c[nH]c2ccccc12)C(=O)N[C@@H](CC(C)C)C(=O)N[C@H](C(=O)N[C@@H](CCC(=O)O)C(=O)N[C@@H](Cc1c[nH]cn1)C(=O)N[C@@H](CCCCN)C(=O)N[C@H](C(=O)N[C@H](C(=O)N[C@@H](CC(=O)O)C(=O)O)[C@@H](C)O)[C@@H](C)CC)[C@@H](C)CC [Compound 65] (HELM PEPTIDE1{H.[Aib].E.G.T.F.T.S.E.L.A.T.I.L.D.E.Q.A.A.K.D.F.I.A.W.L.I.E.H.K.I.T.D}|PEPTIDE2{[O=C(O)CCCCCCCCCCCCCCCCCCC(=O)[*:2]].[gGlu].K.E.K.[O=C(COCCOCCN[*:1])[*:2]]}$PEPTIDE1,PEPTIDE2,20:R3-6:R2$$$V2.0)
EC50 (human GLP-2 receptor): 0.35 nM | EC50 (human GLP-1 receptor): 0.13 nM

CC[C@H](C)[C@H](NC(=O)[C@H](Cc1ccccc1)NC(=O)[C@H](CC(=O)O)NC(=O)[C@H](CCCNC(=N)N)NC(=O)[C@H](C)NC(=O)[C@H](C)NC(=O)[C@H](CCC(N)=O)NC(=O)[C@H](CCCCNC(=O)CC[C@H](NC(=O)CCCCCCCCCCCCCCCCC(=O)O)C(=O)O)NC(=O)[C@H](CC(=O)O)NC(=O)[C@H](CC(C)C)NC(=O)[C@@H](NC(=O)[C@@H](NC(=O)[C@H](C)NC(=O)[C@H](CC(C)C)NC(=O)[C@H](CCC(=O)O)NC(=O)[C@H](CO)NC(=O)[C@@H](NC(=O)[C@H](Cc1ccccc1)NC(=O)[C@H](CO)NC(=O)CNC(=O)[C@H](CCC(=O)O)NC(=O)C(C)(C)NC(=O)[C@@H](N)Cc1c[nH]cn1)[C@@H](C)O)[C@@H](C)O)[C@@H](C)CC)C(=O)N[C@@H](C)C(=O)N[C@@H](Cc1c[nH]c2ccccc12)C(=O)N[C@@H](CC(C)C)C(=O)N[C@H](C(=O)N[C@@H](CCCCN)C(=O)N[C@@H](Cc1c[nH]cn1)C(=O)N[C@@H](CCCCN)C(=O)N[C@H](C(=O)N[C@H](C(=O)N[C@@H](CC(=O)O)C(=O)O)[C@@H](C)O)[C@@H](C)CC)[C@@H](C)CC [Compound 29] (HELM PEPTIDE1{H.[Aib].E.G.S.F.T.S.E.L.A.T.I.L.D.K.Q.A.A.R.D.F.I.A.W.L.I.K.H.K.I.T.D}|PEPTIDE2{[O=C(O)CCCCCCCCCCCCCCCCC(=O)[*:2]].[gGlu]}$PEPTIDE1,PEPTIDE2,16:R3-2:R2$$$V2.0)
EC50 (human GLP-1 receptor): 0.31 nM | pH 6 normalized stability ([1]; pH 6, 40° C.): A (>90% normalised stability) | pH 7 normalized stability ([1]; pH 7, 40° C.): B (>80% stability)
